This note sets out measurements from patent US20210324041A1, “COMBINATION THERAPIES” (Shattuck Labs, Inc., priority 2018, published 2021).

The subject of series [1] is CT26 (murine colon carcinoma) tumor cells. Put plainly: In vivo anti-tumor activity of combinations of a STING agonist and chimeric proteins (CT26 tumor model). Set-up: species or system BALB/C mice. Conditions: for effectiveness of combination by order of administration: chimeric protein provided after DMXAA relative to DMXAA following the chimeric protein. Here is the method: The in vivo ability of specific combinations of a stimulator of interferon genes (STING) agonist and chimeric proteins to target and reduce tumor volume was determined.
BALB/C mice were inoculated with 500,000 CT26 (murine colon carcinoma) tumor cells. Eight days after inoculation, there was no significant difference between starting tumor volumes among the mice, i.e., volumes were approximately 100 mm^3. Specific combinations were included: DMXAA; anti-PD-1 (RMP1-14); anti-OX40 (OX86); PD1-Fc-OX40L; CSF1R-Fc-CD40L (FIG. 8A); DMXAA then anti-PD1; DMXAA then anti-OX40; DMXAA then PD1-Fc-OX40L; DMXAA then CSF1R-Fc-CD40L (FIG. 8B); PD1-Fc-OX40L then […]; and CSF1R-Fc-CD40L then DMXAA (FIG. 8C). Tumor sizes were assayed every other day until the 27th day after inoculation. Mice that rejected the tumor were re-challenged with a secondary tumor (300,000 CT26 tumor cells) on the opposing flank, and primary/secondary tumors continued to be measured.

Series [2] has as its system various cytokines (e.g., CCL4, IL-18, IL-23, and IL-10). Put plainly: In vivo serum cytokine expression in Cynomolgus Macaques (Luminex). Conditions: monkeys; human CSF1R-Fc-CD40L; relative to vehicle; FIG. 10. Set-up: species or system Cynomolgus Macaque. The method, then: (§1) The ability of the CSF1R-Fc-CD40L chimeric protein to induce in vivo cytokine expression in mice and in a non-human primate (Cynomolgus Macaque) was determined.
(§2) Mice were administered a vehicle or the murine CSF1R-Fc-CD40L chimeric protein and Cynomolgus Macaques were administered a vehicle or the human CSF1R-Fc-CD40L chimeric protein and the relative amount of various cytokines (e.g., CCL4, IL-18, IL-23, and IL-10) were detected and quantified.

Series [3] has the same test system. Put plainly: In vivo serum cytokine expression in mice (Luminex). The following applies: murine CSF1R-Fc-CD40L, relative to vehicle, FIG. 10. Here is the method: as §1, §2
Series [4] is described as follows: In vivo toxicity in monkeys. Here is the method:
as §2

Series [5] relates to CT26 (murine colon carcinoma) tumor cells. Put plainly: In vivo anti-tumor activity of combinations of antibodies directed to immune checkpoint molecules and chimeric proteins (CT26 tumor model). Also noted: species or system BALB/C mice. Conditions: for tumor volume: relative to vehicle, until the 35th day, antibodies three doses of 100 μg, chimeric protein three doses of 300 μg. The method, then: The in vivo ability of specific combinations of antibodies directed to immune checkpoint molecules and chimeric proteins to target and reduce tumor volume was determined.
BALB/C mice were inoculated with 500,000 CT26 (murine colon carcinoma) tumor cells. Eight days after inoculation, there was no significant difference between starting tumor volumes among the mice, i.e., volumes were approximately 100 mm^3. Specific combinations were included: anti-CTLA-4 (9D9); anti-PD-1 (RMP1-14); anti-OX40 (OX86); PD1-Fc-OX40L; CSF1R-Fc-CD40L (FIG. 3B); anti-CTLA-4 then anti-PD1; anti-CTLA-4 then anti-OX40; anti-CTLA-4 then PD1-Fc-OX40L; anti-CTLA-4 then CSF1R-Fc-CD40L (FIG. 3C); PD1-Fc-OX40L then anti-CTLA-4; and CSF1R-Fc-CD40L then anti-CTLA-4 (FIG. 3D); anti-CTLA-4 then CSF1R-Fc-CD40L; CSF1R-Fc-CD40L then anti-CTLA-4; and CSF1R-Fc-CD40L with anti-CTLA-4 (FIG. 3E and FIG. 3F); and anti-PD-1 then CSF1R-Fc-CD40L; CSF1R-Fc-CD40L then anti-PD-1; and CSF1R-Fc-CD40L with anti-PD-1 (FIG. 4A and FIG. 4B).
In the experiments shown in FIG. 3A to FIG. 3D, tumor sizes were assayed every other day until the 27th day after inoculation. Mice that rejected the tumor were re-challenged with a secondary tumor (300,000 CT26 tumor cells) on the opposing flank, and primary/secondary tumors continued to be measured. In the experiments shown in FIG. 3E to FIG. 4B, tumor sizes were assayed every other day until the 35th day after inoculation. Mice that rejected the tumor were re-challenged with a secondary tumor (300,000 CT26 tumor cells) on the opposing flank, and primary/secondary tumors continued to be measured. Antibodies were given as three doses of 100 μg, the chimeric protein was given as three doses of 300 μg, with antibodies administered before, after, and simultaneously with the chimeric protein (days 7, 9, & 11; or days 12, 14, & 16).

The nature of the next series: In vivo toxicity in mice. The method, then:
as §2

Regarding `Cc1ccc2c(=O)c3cccc(CC(=O)O)c3oc2c1C` [DMXAA, 5,6-dimethylxanthenone-4-acetic acid, reference compound], the “anti-tumor activity as a monotherapy” value in series [1] (FIG. 8A) was “effective anti-tumor agent”.

In the case of “CSF1R-Fc-CD40L: chimeric protein: extracellular region of CSF1R, linker comprising a hinge-CH2-CH3 Fc region, extracellular region of CD40L; murine and human versions used”, the “effectiveness of combination by order of administration” value in series [1] was “more effective”. Moreover, the serum cytokine levels result in series [2] and in series [3] was “greatly enhanced” each time. For the same molecule, the in vivo toxicity result (in series [4]; in the series “In vivo toxicity in mice”) was “no in vivo toxicity was observed” in each case. Also, the “anti-tumor effects compared among treatment groups” value in series [5] (FIG. 3E (anti-CTLA-4 series)) and in series [5] (FIG. 4A (anti-PD-1 series)) was “Roughly comparable amounts of anti-tumor effects” each time. Moreover, the survivors entry in series [5] (by 30 days after inoculation) was “no survivors”. For the same molecule, in series [5] (chimeric protein administered after the anti-CTLA-4 antibody, FIG. 3C, 3D), the “improvement in tumor volume reduction by order of administration” value is “most significant improvement”. Moreover, the tumor volume entry in series [5] (FIG. 3E (anti-CTLA-4 series)) and in series [5] (FIG. 4A (anti-PD-1 series)) was “effective in reducing tumor volume” throughout.

B1: PD1-Fc-OX40L: chimeric protein: extracellular domain of PD-1, linker comprising a hinge-CH2-CH3 Fc domain, extracellular domain of OX40L (protein)
chain: LDSPDRPWNPPTFSPALLVVTEGDNATFTCSFSNTSESFVLNWYRMSPSNQTDKLAAFPEDRSQPGQDCRFRVTQLPNGRDFHMSVVRARRNDSGTYLCGAISLAPKAQIKESLRAELRVTERRAEVPTAHPSPSPRPAGQFQSKYGPPCPPCPAPEFLGGPSVFLFPPKPKDQLMISRTPEVTCVVVDVSQEDPEVQFNWYVDGVEVHNAKTKPREEQFNSTYRVVSVLTVLHQDWLSGKEYKCKVSSKGLPSSIEKTISNATGQPREPQVYTLPPSQEEMTKNQVSLTCLVKGFYPSDIAVEWESNGQPENNYKTTPPVLDSDGSFFLYSRLTVDKSRWQEGNVFSCSVLHEALHNHYTQKSLSLSLGKIEGRMDQVSHRYPRIQSIKVQFTEYKKEKGFILTSQKEDEIMKVQNNSVIINCDGFYLISLKGYFSQEVNISLHYQKDEEPLFQLKKVRSVNSLMVASLTYKDKVYLNVTTDNTSLDDFHVNGGELILIHQNPGEFCVL
As to B1, in series [1], the “effectiveness of combination by order of administration” value is recorded as “more effective”.
